Assays:
[1] = target: T1, Flavin reductase (NADPH) (Homo sapiens) (UniProt P30043); assay: Binding affinity to human N-terminal His6-tagged and thrombin cleavage fused BLVRB expressed in Escherichia coli BL21 (DE3) assessed as change in gibbs free energy by isothermal titration calorimetry
T1 sequence (whole entry): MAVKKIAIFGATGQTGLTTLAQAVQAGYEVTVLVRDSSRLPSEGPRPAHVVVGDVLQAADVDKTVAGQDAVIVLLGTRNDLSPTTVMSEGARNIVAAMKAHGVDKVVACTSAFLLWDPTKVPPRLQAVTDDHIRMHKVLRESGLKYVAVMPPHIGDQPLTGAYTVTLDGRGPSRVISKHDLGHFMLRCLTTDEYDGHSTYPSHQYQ

Flavin reductase (NADPH) = target: T2, Flavin reductase (NADPH) (Homo sapiens, UniProt P30043); assay: Binding affinity to human N-terminal His6-tagged and thrombin cleavage fused BLVRB expressed in Escherichia coli BL21 (DE3) assessed as dissociation constant by isothermal titration calorimetry
T2 sequence (P30043 whole entry): T1 sequence (whole entry)

[2] = target: T1, Flavin reductase (NADPH) (Homo sapiens); assay: Binding affinity to human N-terminal His6-tagged and thrombin cleavage fused BLVRB expressed in Escherichia coli BL21 (DE3) assessed as change in entropy by isothermal titration calorimetry
[3] = target: T1, Flavin reductase (NADPH) (Homo sapiens); assay: Binding affinity to human N-terminal His6-tagged and thrombin cleavage fused BLVRB expressed in Escherichia coli BL21 (DE3) assessed as change in enthalpy by isothermal titration calorimetry

Compound	deltaG [1]	Kd (Flavin reductase (NADPH))	TdeltaS [2]	deltaH [3]
O=C(O)c1cc(/N=N/c2ccc(S(=O)(=O)Nc3ccccn3)cc2)ccc1O	-8.67 kcal/mol	–	-0.76 kcal/mol	-9.43 kcal/mol
Cc1nc(-c2ccc(OCC(C)C)c(C#N)c2)sc1C(=O)O [FEBUXOSTAT]	-7.9 kcal/mol	1630 nM	2.14 kcal/mol	-5.75 kcal/mol
O=C(O)c1cccc(-c2noc(-c3ccccc3F)n2)c1	-9.13 kcal/mol	200 nM	-1.83 kcal/mol	-11 kcal/mol
O=C(O)c1c(Cl)c(Cl)c(Cl)c(Cl)c1-c1c2cc(Br)c(=O)c(Br)c-2oc2c(Br)c(O)c(Br)cc12	-8 kcal/mol	1360 nM	4.12 kcal/mol	-3.88 kcal/mol
CC1(C)CCC(C)(C)c2cc(NC(=O)c3ccc(C(=O)O)cc3)ccc21	-7.99 kcal/mol	–	3.5 kcal/mol	-4.49 kcal/mol

Now from value to molecule:

deltaG [1]	Kd (Flavin reductase (NADPH))	TdeltaS [2]	deltaH [3]	Compound
-9.28 kcal/mol	160 nM	2.91 kcal/mol	-6.38 kcal/mol	O=C1OC2(c3ccccc31)c1cc(I)c(O)c(I)c1Oc1c2cc(I)c(O)c1I [ERYTHROSINE]
-7.87 kcal/mol	1710 nM	0.55 kcal/mol	-7.32 kcal/mol	O=C(O)c1ccc(-n2nc(-c3ccccc3O)nc2-c2ccccc2O)cc1 [DEFERASIROX]

— ChEMBL document CHEMBL5036359, “Repositioning Food and Drug Administration-Approved Drugs for Inhibiting Biliverdin IXβ Reductase B as a Novel Thrombocytopenia Therapeutic Target” (J Med Chem, 2022)
